Here are results for two molecules from paper PMC6680770, “Effect of Ticagrelor, a Cytochrome P450 3A4 Inhibitor, on the Pharmacokinetics of Tadalafil in Rats” (Pharmaceutics, 2019).

Values joined by “and” are separate entries in the source; they are usually repeats but may differ in a detail not shown here. Equal values may be shown once. Read-outs that look alike come from different tables or passages of the source.

Details of data set [1]: method as in PMID 14622499. The conditions noted are these: cited from earlier work.
Data set [2] in a line: One-compartment pharmacokinetic modeling of the plasma concentration-time profile of tadalafil. Type of data set: in vivo, Sprague-Dawley rats. The conditions noted are these: one-compartment model; for k el: Sprague-Dawley, rat, plasma, read-out: Ke (converted); for k el / Ka / V/F: tadalafil 2 mg/kg oral, mean ± SD, n = 10. As to the method: (§1) The experiment was performed in a parallel design. A total of 20 rats were randomly divided into two groups. The control group, Group N (n = 10, non-pretreated rats), was orally administered for 7 days only with the vehicle (normal saline/polyethylene glycol 400/dimethyl sulfoxide = 40:20:20). Group T (n = 10, ticagrelor-pretreated rats), an experimental group, received 10 mg/kg of ticagrelor in the vehicle once a day for 7 days orally. Thereafter, on the seventh day, tadalafil (2 mg/kg) was orally administered 30 min after the final administration of the vehicle or ticagrelor. Doses of all samples were calculated according to the weight of the rats and administered using gavage. The dose of ticagrelor and tadalafil given to rats were determined by converting the human doses (90 mg for ticagrelor and 20 mg for tadalafil) to animal doses with body surface area, according to the United States Food and Drug Administration guidelines. Blood (0.3 mL) was collected from the retro-orbital plexus or the jugular vein at predetermined time-points (0, 0.33, 0.67, 1, 1.5, 2, 4, 6, 8, 12, and 24 h) after the oral administration. Samples were centrifuged at 15,000× g for 5 min at 4 °C. The plasma was collected and stored at −20 °C until the concentration of tadalafil was analyzed by LC-MS/MS.
Pharmacokinetic modeling of the plasma concentration-time profile of tadalafil was performed using a one-compartment model to investigate the absorption and elimination rates. The parameters of the one-compartment model of tadalafil were estimated based on data from Group N and Group T.
In this model, the shift of the tadalafil amount in the gut compartment and the central compartment is described by the following equations [33]: dG/dt= −Ka·G dC/dt=Ka·G−Ke·C where G and C represent the amount of tadalafil in the gut compartment and the central compartment, respectively. Ka indicates the absorption rate constant from the gut compartment to the central compartment. Ke indicates the elimination rate constant from the central compartment […]. Each equation was applied to both Group N and Group T data through the classic model of WinNolin software 8.1 (Pharsight Corp., Sunnyvale, CA, USA).
Predicted plasma concentrations of tadalafil (Conpred) using the one-compartment model were estimated by the following equation [34]: Conpred= C/(V/F) where V/F indicates the central volume of distribution of tadalafil.

For data set [3] the following is noted: longer than sildenafil or vardenafil; cited from earlier work.
Data set [4] in a line: Pharmacokinetic study of tadalafil after oral administration to non-pretreated and ticagrelor-pretreated rats, non-compartment analysis. The class given is in vivo, Sprague-Dawley rats. The conditions noted are these: tadalafil 2 mg/kg oral; for Cmax / AUC(0-inf) / CL/F / Tmax / half-life / AUC(0-t): Sprague-Dawley, rat, plasma, po, 2 mg/kg, mean ± SD, n = 10; for AUC(0-t): read-out: AUC0–24. As to the method: The concentrations of tadalafil were analyzed by a liquid chromatography tandem-mass spectrometry (LC-MS/MS) system equipped with Agilent 1290 series and Agilent 6495 Triple Quad LC/MS (Agilent Technologies, Santa Clara, CA, USA). A YMC-Triart C18 column (50 × 2.0 mm, 1.9 µm; YMC Inc., Wilmington, NC, USA) was used. The mobile phase was a mixture of 0.2% formic acid in acetonitrile and 0.2% formic acid in distilled water (50:50, v/v), and the flow rate was 0.4 mL/min. The temperature of the column and autosampler were set as 30 °C and 4 °C, respectively. The positive ion mode using Agilent jet stream electrospray ionization (AJS-ESI) was applied to record the scan mass spectra. The ion transitions of tadalafil and IS were set as 390.4→268.1 m/z and 876.4→308.1 m/z, respectively, and detected with a multiple reaction monitoring (MRM) mode. The collision energies for tadalafil and IS were 10 V and 30 V, respectively. The cell accelerator voltage was 5 V and the dwell time was set as 200 ms. The source parameters were set as follows: Gas temperature 200 °C, gas flow 14 L/min, nebulizer 20 psi, sheath gas heater 250 °C, sheath gas flow 11 L/min, capillary 3000 V, and nozzle voltage 1500 V.
as §1
Protein precipitation was applied to extract tadalafil from plasma. Briefly, 200 µL of acetonitrile (0.2 v/v% formic acid) containing 500 ng/mL of IS was added to 20 µL of the plasma sample. After shaking for 5 min, the mixture was centrifuged at 15,000× g for 5 min. The supernatant (150 µL) was transferred and 5 µL of the sample was injected into the LC-MS/MS.
Pharmacokinetic data were analyzed based on the non-compartment analysis of WinNonlin software 8.1 (Pharsight Corp., Sunnyvale, CA, USA). The maximum plasma concentration of tadalafil (maximum concentration (Cmax)) and the time to reach the maximal plasma concentration (Tmax) of tadalafil were determined from the plasma concentration-time profiles. The area under the plasma concentration vs time curve from 0 to 24 h (AUC0–24) was calculated by the linear trapezoidal rule and the area under the plasma concentration vs time curve from 0 h to infinite time (AUC0–∞) was estimated by extrapolating time to infinity. The elimination half-life (T1/2) and apparent total clearance (CL/F) were determined from the ln 2/elimination rate constant and dose/AUC0–∞, respectively.

For data set [5], the system named is CYP3A. Kind of data set: Classification of ticagrelor as CYP3A inhibitor from changes in tadalafil AUC and clearance. The class given is in vivo. The following applies: weak inhibitor = increases AUC of CYP substrate 1.25-fold to 2-fold or reduces clearance by 20–50%; inferred from tadalafil AUC (1.61-fold) and clearance (37%) in rats. As to the method:
as §1, with “Blood (0.3 mL) was collected from the retro-orbital plexus or the jugular vein at predetermined time-points (0, 0.33, 0.67, 1, 1.5, 2, 4, 6, 8, 12, and 24 h) after the oral administration. Samples were centrifuged at 15,000× g for 5 min at 4 °C.” left out
Pharmacokinetic data were analyzed based on the non-compartment analysis of WinNonlin software 8.1 (Pharsight Corp., Sunnyvale, CA, USA). The maximum plasma concentration of tadalafil (maximum concentration (Cmax)) and the time to reach the maximal plasma concentration (Tmax) of tadalafil were determined from the plasma concentration-time profiles. […]

Where [6] appears, read: Group T, ticagrelor-pretreated rats.
Setting [7] is: ticagrelor-pretreated vs non-pretreated rats.
[8] abbreviates: Group T, ticagrelor-pretreated rats (10 mg/kg, 7 days).
[9] abbreviates: rats, ticagrelor pretreatment, p < 0.05.
[10] abbreviates: rats, ticagrelor-pretreated vs non-pretreated.

Consider `CN1CC(=O)N2[C@H](c3ccc4c(c3)OCO4)c3[nH]c4ccccc4c3C[C@@H]2C1=O` [tadalafil, Tadalafil], for which the half-life entry in data set [1] (elderly men) is reported as “about 21.6 h”. In data set [1] (normal healthy men, after administration), the half-life result is recorded as “approximately 17.5 h”. For the same molecule, in data set [2] (Group N, non-pretreated rats), the k el is 4.72e-05 s⁻¹; the Ka was found to be 1.71 ± 0.91 h⁻¹; the V/F is 4.39 ± 0.78 L/kg and 4.39 ± 0.76 L/kg. In data set [2] (setting [6]), the k el was 3.61e-05 s⁻¹, the Ka is 1.14 ± 0.73 h⁻¹ and the V/F was 3.36 ± 0.95 L/kg. In data set [2] (setting [7]), the “Ka Ratio (Group T/Group N)” value is given as 0.67, the “Ke Ratio (Group T/Group N)” value was determined as 0.77 and the “V/F Ratio (Group T/Group N)” value came out at 0.77. In addition, the “clinical efficacy (duration)” value in data set [3] is recorded as “up to 36 h”. In addition, in data set [4] (Group N, non-pretreated rats (vehicle 7 days)), the Cmax was determined as 376 ± 72.8 ng/mL. Further, in data set [4] (Group N, non-pretreated rats), the AUC(0-inf) was 3070 ± 743 ng·h/mL, the CL/F was 11.3 mL/min/kg, the Tmax amounted to 1.45 ± 0.5 h and the half-life was 3.15 ± 0.23 h. The AUC(0-t) in data set [4] (Group N, non-pretreated rats) amounted to 3050 ± 732 ng·h/mL. The Cmax in data set [4] (Group T, ticagrelor-pretreated rats (10 mg/kg oral once a day, 7 days)) is 433 ± 120 ng/mL. Also, in data set [4] (setting [8]), the AUC(0-inf) was 5100 ± 1800 ng·h/mL, the CL/F was 7.17 mL/min/kg, the time to peak (Tmax) was 3.22 ± 1.3 h and the half-life was 4.47 ± 0.89 h. Moreover, the AUC(0-t) in data set [4] (setting [8]) is 4900 ± 1590 ng·h/mL. In addition, in data set [4] (rats, ticagrelor pretreatment), the “increase of AUC of tadalafil by co-administration with ticagrelor” value is “approximately 61%”; the “increase of Tmax, Group T compared to Group N” value came out at 2.22 fold; the “reduction of tadalafil clearance, Group T compared with Group N” value worked out at 37%. In data set [4] (rats, ticagrelor pretreatment, no significant difference (p = 0.3332)), the “increase of Cmax, Group T compared to Group N” value was 1.15 fold. In data set [4] (setting [9]), the “increase of AUC0–24 (systemic exposure), Group T compared to Group N” value is on record as 1.61 fold and the “increase of AUC0–∞, Group T compared to Group N” value came out at 1.66 fold. In data set [4] (setting [10]), the “AUC0–24 Ratio (Group T/Group N)” value is listed as 1.61, the “AUC0–∞ Ratio (Group T/Group N)” value is 1.66, the “CL/F Ratio (Group T/Group N)” value is recorded as 0.63 and the “Cmax Ratio (Group T/Group N)” value is listed as 1.15. Moreover, in data set [4] (setting [10]), the “T1/2 Ratio (Group T/Group N)” value is 1.42 and the “Tmax Ratio (Group T/Group N)” value came out at 2.22.

As to `CCCSc1nc(N[C@@H]2C[C@H]2c2ccc(F)c(F)c2)c2nnn([C@@H]3C[C@H](OCCO)[C@@H](O)[C@H]3O)c2n1` [ticagrelor, Ticagrelor], in data set [5], the CYP3A inhibitor classification result is “weak CYP3A inhibitor”.
